Data on 10 compounds can be found in patent US20170073305A1, “FATTY ACID AMIDES, COMPOSITIONS AND METHODS OF USE” (Catabasis Pharmaceuticals, Inc., priority 2011, published 2017).

In one test the test system is NF-κB. Briefly: NF-κB luciferase reporter assay in RAW 264.7 macrophages. The test is classed as cell-based. The note with it: Mus musculus, RAW264.7; RAW 264.7 3×NF-κB luciferase reporter cells, 2 hour pretreatment, 200 ng/ml LPS for 3 hours; read-out: NF-kB inhibitory activity IC50. How it is done:
RAW 264.7 cells stably expressing a 3×NF-κB response element-drive luciferase reporter were seeded into 96 well plates in sera-free medium (Optimem) 18 hours prior to compound application. Compounds of the invention were prepared by first making 100 mM stock solutions in EtOH. Stock solutions were then diluted 1:100 in low LPS FBS (Gemini BenchMark 100-106), mixed vigorously and allowed to incubate at room temperature for 30 minutes. 1:2 serial dilutions were then made in FBS supplemented with 1% EtOH, mixed vigorously, and again allowed to incubate at room temperature for 30 minutes before adding to RAW 264.7 reporter cells (final concentrations: 10% FBS, 100 uM highest compound dilution, 0.1% EtOH) for a 2 hour pretreatment prior to stimulation with LPS. Cells were then stimulated with 200 ng/ml LPS or vehicle control for 3 hours in the presence of the compounds of the invention. A set of six vehicles was left unstimulated with LPS in order to measure the assay floor. AlamarBlue viability dye (Invitrogen) was added to cells simultaneously with the delivery of LPS (final AlamarBlue concentration of 10%). After the 3 h incubation period with LPS, cell viability was measured by reading fluorescence (excitation 550 nm, emission 595 nm) with a Perkin Elmer Victor V plate reader. Then cell media was aspirated from each well. Luciferase signal was then developed by addition of the Britelite Plus reagent (Perkin Elmer). Luciferase activity was measured with the Perkin Elmer Victor V plate reader. NF-κB activity was expressed as a percent of the vehicle control wells (stimulated with LPS). Compounds were tested at 6 dose point titrations in triplicate to determine IC50 values. Table 1 summarizes the IC50 values for a number of fatty acid amides in this NF-κB luciferase reporter assay.

Test [1] relates to Cystinotic fibroblasts (cell line GM00008, Coriell Cell Repository). Briefly: cystinotic fibroblast assay (cystine depletion, LC-MS/MS). The following applies: 50 μM, cells incubated 24 hours, cystine by LC-MS/MS, percentage of control (POC). The test is classed as cell-based. From the text:
Nephropathic cystinosis is an orphan genetic lysosomal storage disorder characterized by a massive accumulation of crystalline cystine within cells. Affected individuals develop a proximal renal tubulopathy and progress, if untreated, to end-stage renal failure. Omran et al (Bioorg. Med. Chem. 2011, p, 3492) described a convenient in vitro system to quickly evaluate compounds that could deplete levels of cystine in cultured fibroblasts. Cystinotic fibroblasts (cell line GM00008, Coriell Cell Repository) were seeded in a 6-well plate and grown in DMEM/15% FBS until confluent. […] Protein quantification was accomplished by dissolving precipitated protein in 0.25 M NaOH and 1 M Tris (pH 7.5), and spectrophotometric measurement using the Bradford method. Compound I-9 was evaluated in this cystinotic fibroblast assay. The level of cystine in this cystinotic cell line was quantitated by LC-MS/MS. […] The level of cystine was expressed as the percentage of control (POC). […] The cystine level was determined as follows: To the 50 μL of supernatant, acetonitrile (400 μL) containing 200 ng/ml Internal standard (deuterated cystine) was added and mixture was vortexed for 1 min followed by centrifugation for 10 minutes. […] The concentration of Cystine was measured by LC-MS/MS. […]

Another test relates to IL-1β. Briefly: IL-1β gene expression in LPS-stimulated RAW264.7 macrophages. The test is classed as cell-based. The note with it: RAW264.7, 2 hours pre-incubation, 100 ng/ml LPS 3 hours, relative to vehicle only control, FIG. 1. How it is done:
RAW264.7 macrophages were seeded at a density of 100,000 cells/well in a 96-well plate in DMEM supplemented with 10% FBS and Penn/strep. 16 hours later, medium was aspirated and replaced with 90 μL/well of serum-free DMEM. Fatty acid amides were brought up in 100% EtOH to a concentration of 100 mM and then diluted 1:100 in 100% FBS for a stock solution consisting of 1 mM compound and 1% EtOH. These stock solutions were then diluted 1:10 in FBS supplemented with 1% EtOH to generate a 100 μM of the fatty acid amide. 10 μL was then added to the RAW246.7 cells to generate final concentrations 10 μM of the fatty acid amide or 10 μM each DHA and MMF, along with vehicle only control. The compounds were allowed to pre-incubate for 2 hours before stimulation of 100 ng/ml LPS (10 μL of 1 μg/ml LPS was added to each well). Following 3 hours of LPS stimulation, cells were washed once in 1×PBS, aspirated dry, and flash frozen in liquid nitrogen. […] IL-1β transcript levels were then measured using Taqman primer/probe assay sets (Applied Biosystems), normalized to GAPDH using the deltaCt method, and the data expressed relative to vehicle only control. FIG. 1 summarizes the IL-1β gene expression data on compound I-57 (cellular toxicity was assessed using alamar blue as indicator, abbreviated in the figure as AB). […]

Another test has as its system Hmox1. Briefly: Hmox1 target gene expression in LPS-stimulated RAW264.7 macrophages. It counts as cell-based. The following applies: RAW264.7, 1.6-50 μM, 2 hours pre-incubation, 100 ng/ml LPS 3 hours, relative to vehicle only control, FIG. 2. As to the method: RAW264.7 macrophages were seeded at a density of 100,000 cells/well in a 96-well plate in DMEM supplemented with 10% FBS and Penn/strep. 16 hours later, medium was aspirated and replaced with 90 uL/well of serum-free DMEM. Fatty acid amides were brought up in 100% EtOH to a concentration of 100 mM and then diluted 1:100 in 100% FBS for a 20× stock solution consisting of 1 mM compound and 1% EtOH. The fatty acid amide 20× stock solutions were diluted 1:2 in FBS supplemented with 1% EtOH for a 500 uM 10× stock solution. The 10× stock solutions were then serially diluted 1:2 in FBS supplemented with 1% EtOH and 10 μL of each dilution was added to the RAW246.7 cells to generate final concentrations of 50, 25, 12.5, 6.25, 3.12 and 1.6 μM. The compounds were allowed to pre-incubate for 2 hours before stimulation of 100 ng/ml LPS (10 μL of 1 μg/ml LPS is added to each well). Following 3 hours of LPS stimulation, cells were washed once in 1×PBS, aspirated dry, and flash frozen in liquid nitrogen. […] Transcript levels were then measured using ABI Taqman primer/probe assay kits, normalized to GAPDH using the deltaCt method, and the data expressed relative to vehicle only control. FIG. 2 summarizes the Hmox data on compound I-57 (cellular toxicity was assessed using alamar blue as indicator, abbreviated in the figure as AB). […]

In another test the test system is mice lacking cystinosin. The note with it: 200 or 400 mg/kg orally for 7, 30 or 60 days, greatest effect in liver and kidney after 60 days; cited from earlier work.

The structures appear in SMILES notation. Some results are limits rather than exact numbers.

Broadly, the IC50 is the concentration that inhibits the measured activity by half.

Regarding `CC/C=C\C/C=C\C/C=C\C/C=C\C/C=C\C/C=C\CCC(=O)O` [DHA, all-cis-4,7,10,13,16,19-docosahexaenoic acid, reference compound], the IC50 in the test with NF-κB is > 200 µM.
Still for that read-out and setting: the same measure for `CC/C=C\C/C=C\C/C=C\C/C=C\C/C=C\CCCC(=O)O` [EPA, all-cis-5,8,11,14,17-eicosapentaenoic acid, reference compound]: > 200 µM.
For `CC/C=C\C/C=C\C/C=C\C/C=C\C/C=C\CCCC(=O)NCCSSCCNC(C)=O` [I-9, (5Z,8Z,11Z,14Z,17Z)-N-(2-((2-acetamidoethyl)disulfanyl)ethyl)icosa-5,8,11,14,17-pentaenamide], in test [1], the “reduction in the cystine level” value was 68%.
For `CC/C=C\C/C=C\C/C=C\C/C=C\C/C=C\C/C=C\CCC(=O)Nc1nc2c(s1)C[C@H](NCCC)CC2` [I-21, (4Z,7Z,10Z,13Z,16Z,19Z)-N-((R)-6-(propylamino)-4,5,6,7-tetrahydrobenzo[d]thiazol-2-yl)docosa-4,7,10,13,16,19-hexaenamide], the IC50 in the test on NF-κB was < 200 µM.
`CC/C=C\C/C=C\C/C=C\C/C=C\C/C=C\C/C=C\CCC(=O)N[C@@H](C)C(=O)N[C@@H]1[C@@H](O)[C@H](O)[C@@H](CO)O[C@H]1O` [I-47, (4Z,7Z,10Z,13Z,16Z,19Z)-N-((S)-1-oxo-1-(((2R,3R,4R,5S,6R)-2,4,5-trihydroxy-6-(hydroxymethyl)tetrahydro-2H-pyran-3-yl)amino)propan-2-yl)docosa-4,7,10,13,16,19-hexaenamide]: the IC50 in the test with NF-κB was > 200 µM.
As for `CC/C=C\C/C=C\C/C=C\C/C=C\C/C=C\C/C=C\CCC(=O)N[C@H](C(=O)N[C@@H]1[C@@H](O)[C@H](O)[C@@H](CO)O[C@H]1O)C(C)C` [I-48, (4Z,7Z,10Z,13Z,16Z,19Z)-N-((S)-3-methyl-1-oxo-1-(((2R,3R,4R,5S,6R)-2,4,5-trihydroxy-6-(hydroxymethyl)tetrahydro-2H-pyran-3-yl)amino)butan-2-yl)docosa-4,7,10,13,16,19-hexaenamide], the IC50 in the test with NF-κB is < 50 µM.
Take `CC/C=C\C/C=C\C/C=C\C/C=C\C/C=C\C/C=C\CCC(=O)N[C@@H](CC(C)C)C(=O)N[C@@H]1[C@@H](O)[C@H](O)[C@@H](CO)O[C@H]1O` [I-49, (4Z,7Z,10Z,13Z,16Z,19Z)-N-((S)-4-methyl-1-oxo-1-(((2R,3R,4R,5S,6R)-2,4,5-trihydroxy-6-(hydroxymethyl)tetrahydro-2H-pyran-3-yl)amino)pentan-2-yl)docosa-4,7,10,13,16,19-hexaenamide]: the IC50 in the test with NF-κB is < 50 µM.
On the same count and under the same terms, the value for `CC/C=C\C/C=C\C/C=C\C/C=C\C/C=C\C/C=C\CCC(=O)NCCOCCOCCOC` [I-52, (4Z,7Z,10Z,13Z,16Z,19Z)-N-(2-(2-(2-methoxyethoxy)ethoxy)ethyl)docosa-4,7,10,13,16,19-hexaenamide] was < 50 µM.
For the compound `CC/C=C\C/C=C\C/C=C\C/C=C\C/C=C\CCCC(=O)NCCOCCOCCOC` [I-57, (5Z,8Z,11Z,14Z,17Z)-N-(2-(2-(2-methoxyethoxy)ethoxy)ethyl)icosa-5,8,11,14,17-pentaenamide], in the test with NF-κB, the IC50 is < 50 µM. Also, in the test on IL-1β, the IL-1β gene expression entry is listed as “decrease”. The Hmox gene expression entry in the test on Hmox1 is “upregulation”.
In the case of `NCCS` [cysteamine, reference compound], the “reduction in the cystine level” value in test [1] worked out at 45%. For the same compound, the “cystine levels of tissues” value with mice lacking cystinosin is “reduce cystine levels of all tissues tested”.
